Measured values as given in patent publication US10709718B2, “Inhibitors of diacylglycerol O-acyltransferase 1 (DGAT-1) and uses thereof” (Metabasis Therapeutics, Inc., priority 2009, dated 2020).
Like-named read-outs stand apart in the source and are kept apart here.

Experiments:
hDGAT1 = hDGAT1 (Homo sapiens (Human), UniProt O75907); experiment: Inhibition of human microsomal DGAT activity (14C-TAG formation, intestinal microsomes); format: biochemical
Description: The inhibition of DGAT-1 activity can be assessed in intestinal microsome preparations by monitoring the incorporation of radiolabeled fatty acyl-CoA into […].
Methods: Commercial microsomal preparations containing 60 ug of protein are incubated in assay buffer [20 uM 1,2-didecanloyl glycerol, 5 uM ^14C decanoyl-CoA, 5 mM MgCl2, 0.4% BSA, 0.1% dimethyl sulfoxide (DMSO), 50 mM HEPES-pH 7.5] in the presence of varying concentrations of inhibitors that are dispensed from 100% DMSO stock solutions. Final assay volumes are 200 uL. Reactions are carried out for 45 minutes in 96-well polystyrene microtiter plates at ambient temperature. Following the ambient temperature incubation, assay mixtures are applied to a 96-well filter plate (Catalog # MSHVN4510, Millipore Inc.; Billerica, Mass.) under vacuum. The filter plate is pre-equilibrated with 100 uL of 70% ethanol followed by 200 uL of assay buffer. […] De novo ^14C-TAG formed in the assay and trapped on the filters is quantified with use of a liquid scintillation counter (Model # LS6500 Beckman Coulter, Inc.; Fullerton, Calif.).

[1] = Plasma pharmacokinetics and oral bioavailability in rats; format: in vivo, rat; settings: male Sprague Dawley rats, 5 mg/kg, LOQ 0.001 ug/mL
Description: Pharmacokinetic studies in rats are useful for the identification of DGAT-1 inhibitors that have low oral bioavailability and show low systemic exposure (i.e. low circulating levels in plasma).
Methods: Groups of male Sprague Dawley rats (200-250 g) (n=3/group) were administered either an IV bolus (1% Tween-80, pH adjusted to 7, vehicle) or an oral gavage (50% PEG-200 in 1% Tween-80 vehicle) of 5 mg/kg of each DGAT-1 inhibitor. Blood (EDTA) was collected by tail nick at 0.5, 1, 2, 4, 8, 10-12 and 24 hr post dose. Following centrifugation of the blood to obtain plasma, the samples were analyzed by LC-MS/MS method for active metabolite. The pharmacokinetic parameters were calculated by noncompartmental analysis of the plasma concentration-time profile of the active metabolite. The oral bioavailability was determined by dividing the dose-normalized plasma AUC value of the active metabolite following oral administration of the DGAT-1 inhibitor by the plasma AUC value of the active metabolite after IV bolus administration.

Sprague Dawley rats = experiment: In vivo assay for intestinal triglyceride export (serum TAG after olive oil gavage); parameters: species or system rat; settings: oral administration, doses in the range of 0.1 to 30 mg/kg
Description: The following screen can be used to evaluate the effects of DGAT-1 inhibitors on the export of dietary TAGs from the intestine to the circulation in rodents (male Sprague Dawley rats or C57BL/6 mice).
Methods: Animals (housed 2/cage) are fasted overnight, and dosed (PO) the next day with vehicle (1% Tween-80) or test compound at doses ranging from 0.01 to 30 mg/kg, followed by an oral gavage of olive oil. Blood samples are taken at baseline and at appropriate intervals over the course of 4 hours. Serum TAG levels are determined using the Infinity triglyceride reagent per the manufacturer's instructions.

[2] = microsomal preparation, 14C decanoyl-CoA, 45 min, ambient temperature

Chain of hDGAT1 (O75907 whole entry): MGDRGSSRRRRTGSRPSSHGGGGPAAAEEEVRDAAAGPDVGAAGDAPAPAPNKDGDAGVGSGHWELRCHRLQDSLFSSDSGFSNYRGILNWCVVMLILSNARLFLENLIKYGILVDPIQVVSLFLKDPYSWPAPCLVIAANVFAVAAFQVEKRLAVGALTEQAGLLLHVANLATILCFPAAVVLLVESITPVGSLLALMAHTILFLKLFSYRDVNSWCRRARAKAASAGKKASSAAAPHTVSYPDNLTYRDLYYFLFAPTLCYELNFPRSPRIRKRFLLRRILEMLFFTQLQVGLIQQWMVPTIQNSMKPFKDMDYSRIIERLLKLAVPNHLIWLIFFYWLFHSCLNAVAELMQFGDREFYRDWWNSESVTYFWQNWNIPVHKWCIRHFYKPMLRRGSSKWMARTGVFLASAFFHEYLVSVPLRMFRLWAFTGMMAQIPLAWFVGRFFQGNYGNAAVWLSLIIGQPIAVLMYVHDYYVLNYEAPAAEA

Structure (SMILES) | IC50 (hDGAT1; [2]) | also measured
CC1(C)Oc2ncnc(N)c2N=C1c1ccc([C@H]2CC[C@H](OP(=O)(O)c3ccsc3)CC2)cc1 [Compound 20] | < 0.01 µM | –
CC1(C)Oc2ncnc(N)c2N=C1c1ccc(C2CCC(OP(=O)(O)Cc3ccccc3)CC2)cc1 (stereo not shown) [Compound 11] | < 0.01 µM | –
CC1(C)Oc2ncnc(N)c2N=C1c1ccc([C@H]2CC[C@H](CP(=O)(O)c3ccccc3)CC2)cc1 [Compound 21] | < 0.01 µM | –
CC(C)COP(=O)(O)O[C@H]1CC[C@H](c2ccc(C3=Nc4c(N)ncnc4OC3(C)C)cc2)CC1 [Compound 8] | < 0.01 µM | –
CP(=O)(O)[C@@H]1CCC[C@H]1C(=O)c1ccc(-c2ccc(NC(=O)Nc3ccccc3)cc2)cc1 [Compound 2] | – | Cmax [1]: 5 ng/mL; AUC0-4h of serum TAGs (Sprague Dawley rats): reduced
CCOP(=O)(O)OC1CCC(c2ccc(C3=Nc4c(N)ncnc4OC3(C)C)cc2)CC1 (stereo not shown) [Compound 9] | – | IC50 (hDGAT1): < 0.01 µM
CC1(C)Oc2ncnc(N)c2N=C1c1ccc([C@H]2CC[C@H](CP(=O)(O)C3CC3)CC2)cc1 [Compound 23] | < 0.01 µM | –
CP(=O)(O)C[C@H]1CC[C@H](c2ccc(NC(=O)c3nnc(Nc4ccc(F)c(F)c4)o3)cc2)CC1 [Compound 5] | < 0.01 µM | Cmax [1]: 3 ng/mL; AUC0-4h of serum TAGs (Sprague Dawley rats): reduced
CC1(C)Oc2ncnc(N)c2N=C1c1ccc([C@H]2CC[C@H](OP(=O)(O)Cc3ccc(C(=O)O)cc3)CC2)cc1 [Compound 17] | < 0.01 µM | –

The next lines start with results.

IC50 (hDGAT1; [2]) | Structure (SMILES) | also measured
< 0.01 µM | CC1(C)Oc2ncnc(N)c2N=C1c1ccc(C2CCC(OP(=O)(O)OC3CCCC3)CC2)cc1 (stereo not shown) [Compound 10] | –
< 0.01 µM | CC1(C)Oc2ncnc(N)c2N=C1c1ccc([C@H]2CC[C@H](OP(=O)(O)c3cccs3)CC2)cc1 [Compound 19] | –
< 0.01 µM | CC1(C)Oc2ncnc(N)c2N=C1c1ccc([C@H]2CC[C@H](OP(=O)(O)c3ccccc3)CC2)cc1 [Compound 14] | –
< 0.01 µM | CC1(C)Oc2ncnc(N)c2N=C1c1ccc([C@H]2CC[C@H](OP(=O)(O)O)CC2)cc1 [Compound 3] | –
< 0.01 µM | CC1(C)Oc2ncnc(N)c2N=C1c1ccc([C@H]2CC[C@H](CP(C)(=O)O)CC2)cc1 [Compound 1] | Cmax [1]: 9 ng/mL; AUC0-4h of serum TAGs (Sprague Dawley rats): reduced
